Test results as given in PMC3231940, “Disposition, metabolism and mass balance of [^14C]apremilast following oral administration” (Xenobiotica; the Fate of Foreign Compounds in Biological …, 2011).
pIC50: −log10 of the molar value.

How the values were obtained:
[1] = tested on: PDE4 enzyme isolated from U937 human monocytic cells; assay: PDE4 inhibition, cAMP hydrolysis assay; type: biochemical; details: PDE4 from U937 cells, cAMP hydrolysis
Protocol: (§1) PDE4 enzyme was isolated from U937 human monocytic cells and used for testing inhibition in a cAMP hydrolysis assay as previously described ([Schafer et al. 2010]). For the TNF-α production assay, human peripheral blood mono-nuclear cells (PBMC) were isolated from buffy coat of normal donor blood units (Blood Center of New Jersey, East Orange, NJ) by density centrifugation over Ficoll Hypaque (Pharmacia, Piscataway, NJ). Cells were cultured in RPMI 1640 (Life Technologies, Grand Island, NY) supplemented with 5% AB^+ human serum (Gemini Bio-products, Woodland, CA), 2-mM L-glutamine, 100-U/mL penicillin and 100-μg/mL streptomycin (Life Technologies). PBMC (2×10^5 cells) were plated in 96-well flat-bottom Costar tissue culture plates (Corning, NY) in duplicate. Cells were stimulated with lipopolysaccharides (LPS) (from Salmonella abortus equi; Sigma cat.no. L-1887, St.Louis, MO) at a final concentration of 1 ng/mL in the absence or presence of compounds. The compounds were dissolved in DMSO (Sigma) and subsequent dilutions were done in culture medium immediately before use. The compounds were added to cells 1 h before LPS stimulation. The cells were incubated for 16-18 h at 37°C in 5% CO2, and super-natants were then collected, diluted with culture medium and assayed for TNF-α levels by enzyme-linked immunosorbent assay (ThermoFisher, Rockford, IL). Fifty percent inhibitory concentrations (IC50) for the PDE4 enzymatic and TNF-α assay were calculated by non-linear regression analysis using Prism 5.1 (GraphPad Software). Regression curves were sigmoidal dose response curves with maximum and minimum constrained to 100% and 0%, respectively.

[2] = Metabolite profiling by HPLC radiochromatography in plasma, urine and faeces; type: in vivo, human; set-up: key to Plasma (% AUC relative to TRA); share of circulating radioactivity / % of dose excreted, urine: ND: not detected; D: detected by MS, but at concentrations too low to accurately quantify by radiochromatography
Protocol: Individual plasma samples collected from all subjects at 0.5, 1, 2.5, 8, 24, 36 and 48 h post-dose were analysed for metabolite profiling. A pooled sample (equal volume from 0.5,1,2.5,8 and 24 h) from subject 1 was also used for metabolite profiling. Three volumes of acetonitrile were added to each sample, followed by mixing and centrifu-gation. The supernatant was removed and the pellet was washed twice with acetonitrile. The combined superna-tants were evaporated to dryness under a stream of nitrogen. The residues were re-suspended in acetonitrile: 1% formic acid in water (1:1), assayed for extraction recovery and analysed for metabolite profiling.
For each subject, urine samples were pooled using an equal percentage by volume of the 0-4, 4-8, 8-12 and 12-24-h samples. The 24-48-h urine sample from each subject and a pool of the 0-168-h urine samples from subject 1 were also analysed for metabolite profiling. Samples were mixed and centrifuged prior to the supernatants being transferred to fresh tubes for metabolite profiling analysis.
Faecal homogenates for metabolite profiling were pooled using an equal percentage by weight to generate two pools (0-48 h and 48-96 h) for each subject. An additional pool (0-168 h) was prepared using the samples collected from subject 1. An aliquot (approximately 6 g) of each pool was extracted with three volumes of acetonitrile; samples were mixed and centrifuged. The supernatant was removed and the pellets were extracted twice with an additional 12 mL of acetonitrile each time. The combined supernatants were evaporated to dryness under a stream of nitrogen and the residue was re-suspended in a small volume (approximately 400 μL) of acetonitrile: 1% formic acid in water (1:1). Samples were assayed for extraction recovery prior to metabolite profiling.
HPLC analysis for metabolite profiling was performed using a Shimadzu LC-10ADVP (Shimadzu Corp., Columbia, MD) or a Waters 2695 Alliance Separation Module (Waters Corp., Milford, MA) with the autosampler set to an ambient temperature of approximately 22°C. ASPD-10A VPUV-Vis Detector or a Waters 996 Photodiode array detector set to 254 nm was used to detect UV absorbance. [^14C]Apremilast and metabolites were separated using a Phenomenex Luna C 18(2) column (150 × 4.6 mm, 3 μm; Phenomenex, Torrance, CA) equipped with a RP-18 guard column (15×3.2 mm, 7 μm) or using an ACE 3 C18 column (150 × 4.6 mm, 3 μm; Advanced Chromatography Technologies, Aberdeen, Scotland) equipped with an ACE 3 guard column (10×3mm, 3 μm). The mobile phases used were 0.4% formic acid in water; pH 3.2 with ammonium hydroxide (mobile phase A) and acetonitrile (mobile phase B). The column temperature was 30°C and the flow rate was 0.7mL/min. The linear gradient was delivered as follows: 0-5 min to 100% A; 5-20 min to 85% A; 20-30 min hold at 85% A; 30-50 min to 65% A; 50-60 min to 60% A; 60-70 min to 50% A; 70-75 min to 0% A; hold at 0% A until 80 min; return to initial conditions over 2 min.
Radioactivity profiles for excreta were determined by radiochromatography using liquid chromatography-accurate radioisotope counting stop-flow system (LC-ARC; AIM Research Company, Wilmington, DE). Radioactivity was detected using a β-Ram Radioflow detector (IN/US Systems, Brandon, FL) equipped with a 1300-μL liquid cell. Liquid scintillation cocktail and column eluate were mixed at a ratio of 2.5:1. Radioactive peaks were quantified using LC-ARC data handling software. Plasma radioactivity profiles were determined by collecting the column eluate into 96-well Deepwell LumaPlates at a rate of 0.25 min/fraction. The plates were dried and the radioactivity in each well determined using a PerkinElmer TopCount NXT Microplate Scintillation Counter. HPLC radiochromatograms were reconstructed using LC-ARC data handling software.
Pharmacokinetic data were generated by non-compartmental analysis of plasma or whole blood versus time profiles using WinNonlin (version 4.1, Enterprise Edition). […]

[3] = tested on: TNF-α production by human peripheral blood mononuclear cells; assay: TNF-α production assay in LPS-stimulated PBMC; type: cell-based; details: LPS 1 ng/mL, 16-18 h, ELISA
Protocol: as §1

pIC50 [1]: 3.92
Plasma (% AUC relative to TRA); share of circulating radioactivity ([2]; AUC0-t (unchanged drug or metabolite)/AUC0-48 (TRA) * 100%): D
% of dose excreted, faeces ([2]; faeces collected up to 96-h post-dose): 0.5 % of dose
% of dose excreted, urine ([2]; urine collected up to 48-h post-dose): 0.9 % of dose
pIC50 [3]: 4.11
SMILES: CCOc1cc([C@@H](CS(C)(=O)=O)NC(=O)c2cccc(NC(C)=O)c2C(=O)O)ccc1OC [M1/M2]
